From ChEMBL document CHEMBL1134205, “Development of novel telomerase inhibitors based on a bisindole unit” (Bioorg Med Chem Lett, 2001)
pIC50: −log10 of the molar value.

Key:
[1] = biological target: T1, Telomerase reverse transcriptase (Homo sapiens, UniProt O14746); assay: Inhibition ratio of human telomerase was determined by stretch PCR assay with use of 100 uM of the ligand
[2] = biological target: T1, Telomerase reverse transcriptase; assay: Inhibitory concentration against human telomerase

T1 sequence (O14746 whole entry): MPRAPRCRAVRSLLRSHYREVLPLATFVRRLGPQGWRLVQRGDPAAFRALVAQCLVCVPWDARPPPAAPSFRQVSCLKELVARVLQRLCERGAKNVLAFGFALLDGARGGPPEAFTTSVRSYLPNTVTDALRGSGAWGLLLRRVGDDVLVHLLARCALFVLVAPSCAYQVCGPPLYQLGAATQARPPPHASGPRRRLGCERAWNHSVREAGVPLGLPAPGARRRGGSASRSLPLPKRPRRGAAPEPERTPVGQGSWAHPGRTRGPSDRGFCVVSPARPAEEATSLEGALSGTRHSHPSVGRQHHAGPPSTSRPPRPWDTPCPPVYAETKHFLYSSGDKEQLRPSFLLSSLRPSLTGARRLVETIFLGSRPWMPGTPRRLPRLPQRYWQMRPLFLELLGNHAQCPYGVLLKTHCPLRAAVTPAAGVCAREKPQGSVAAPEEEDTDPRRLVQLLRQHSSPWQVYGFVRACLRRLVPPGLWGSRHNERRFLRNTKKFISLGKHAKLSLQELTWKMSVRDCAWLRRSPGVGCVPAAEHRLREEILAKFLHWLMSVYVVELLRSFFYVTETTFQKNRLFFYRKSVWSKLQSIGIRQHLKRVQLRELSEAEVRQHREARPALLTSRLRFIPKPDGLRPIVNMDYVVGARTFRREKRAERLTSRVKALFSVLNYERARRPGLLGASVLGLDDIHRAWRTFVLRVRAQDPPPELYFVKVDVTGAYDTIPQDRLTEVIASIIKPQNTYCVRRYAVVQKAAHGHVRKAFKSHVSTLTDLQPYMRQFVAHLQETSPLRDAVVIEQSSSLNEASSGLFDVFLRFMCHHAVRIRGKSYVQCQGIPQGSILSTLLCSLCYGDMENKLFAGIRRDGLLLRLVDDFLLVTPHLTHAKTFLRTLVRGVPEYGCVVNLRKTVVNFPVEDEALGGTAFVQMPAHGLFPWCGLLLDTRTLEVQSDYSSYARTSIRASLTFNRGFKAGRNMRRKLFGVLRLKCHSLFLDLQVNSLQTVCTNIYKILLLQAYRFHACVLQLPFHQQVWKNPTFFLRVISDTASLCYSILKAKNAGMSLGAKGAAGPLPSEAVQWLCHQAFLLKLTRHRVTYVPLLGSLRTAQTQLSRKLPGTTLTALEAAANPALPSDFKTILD

SMILES | inhibition [1] [%] | pIC50 [2]
Cc1c2n(c3ccccc13)CCCn1c-2c(CC(=O)NCCCCCCCCCCCC(=O)O)c2ccccc21 | 82 | 4.30
O=C(Cc1cn(CCn2ccc3cc(Cl)ccc32)c2ccccc12)NCCCCCCCCCCCCOP(=O)(O)OC1CCCCC1 |  | 5.06
O=C(Cc1cn(CCn2ccc3cc(Cl)ccc32)c2ccccc12)NCCCCCCCCCCCCOP(=O)(O)Oc1cccc(Cl)c1 |  | 5.60
O=C(O)CCCCCCCCCCCNC(=O)Cc1cn(CCn2ccc3ccccc32)c2ccccc12 | 77 | 4.39
N#CCCOP(=O)(O)OCCCCCCCCCCCCNC(=O)Cc1cn(CCn2ccc3cc(Cl)ccc32)c2ccccc12 |  | < 4.00
Cc1cn(CCCn2cc(CC(=O)NCCCCCCCCCCCC(=O)O)c3ccccc32)c2ccccc12 | 100 | 4.70
O=C(O)CCCCCCCCCCCNC(=O)Cc1cn(CCCn2ccc3ccccc32)c2ccccc12 | 46 | 4.04
Cc1cn(CCCn2cc(CC(=O)NCCCCCCCCCCCCOP(=O)(O)Oc3cccc(Cl)c3)c3ccccc32)c2ccccc12 |  | 5.47
O=C(Cc1cn(CCn2ccc3cc(Cl)ccc32)c2ccccc12)NCCCCCCCCCCCCOP(=O)(O)Oc1ccccc1 |  | 5.17
O=C(O)CCCCCCCCCCCNC(=O)Cc1cn(CCCOC2CCCCC2)c2ccccc12 | 75 | 4.17
O=C(O)CCCCCCCCCCCNC(=O)Cc1cn(CCOc2cccc3ccccc23)c2ccccc12 | 65 | 4.46
O=C(O)CCCCCCCCCCCNC(=O)Cc1cn(CCOc2ccccc2)c2ccccc12 | 0 | 
Cc1cn(CCCn2cc(CC(=O)NCCCCCCCCCCCCOP(=O)(OCCC#N)Oc3cccc(Cl)c3)c3ccccc32)c2ccccc12 (configuration not stated) |  | < 4.00
O=C(Cc1cn(CCCn2cccc2)c2ccccc12)NCCCCCCCCCCCOP(=O)(O)c1ccccc1Cl |  | 5.38
O=C(O)CCCCCCCCCCCNC(=O)Cc1cn(CCCn2cccc2)c2ccccc12 | 0 | < 4.00
O=C(O)CCCCCCCCCCCNC(=O)Cc1cn(CCCN2CCCC2)c2ccccc12 | 13 | < 4.00
O=C(O)CCCCCCCCCCCNC(=O)COc1c(-c2cc3ccccc3[nH]2)[nH]c2ccccc12 |  | < 4.00
O=C(O)CCCCCCCCCCCNC(=O)Cc1cn(CCCOc2ccccc2)c2ccccc12 | 75 | 4.48
N#CCCOP(=O)(OCCCCCCCCCCCCNC(=O)Cc1cn(CCn2ccc3cc(Cl)ccc32)c2ccccc12)Oc1cccc(Cl)c1 (configuration not stated) |  | < 4.00
Cc1cn(CCn2cc(CC(=O)NCCCCCCCCCCCC(=O)O)c3ccccc32)c2ccccc12 | 7 | < 4.00
O=C(O)CCCCCCCCCCCNC(=O)Cc1c2n(c3ccccc13)CCn1c-2cc2ccccc21 | 62 | 4.21
